The test system of the experiment is 3T3-L1. Put plainly: Increase in insulin-stimulated [3H]2-deoxy-D-glucose uptake in mouse 3T3L1cells at 1 uM after 3 days by liquid scintillation counting relative to insulin. The class given is functional, cell-based.

The structures appear in SMILES notation. The source made the active and inactive calls. The rule behind the calls is not given here.

For the compound `COc1ccc(CC2COc3c(OC)c(O)c(C)c(O)c3C2=O)c(O)c1` (racemic), the outcome was Active.

On to `Cc1c(O)c(C)c2c(c1O)C(=O)[C@H](Cc1ccc(O)cc1)CO2`, for which the result was Active.

For `COc1ccc(CC2COc3c(C)c(O)c(C)c(O)c3C2=O)c(O)c1` (racemic), the result was Active.

Consider `COc1c(O)c(C)c(O)c2c1OC[C@@H](Cc1ccc(O)cc1)C2=O`, for which the outcome was Active.

For `COc1ccc(C[C@@H]2COc3c(OC)c(O)c(C)c(O)c3C2=O)cc1`, the result was Active.

With `O=C1/C(=C/c2ccc(O)cc2)COc2cc(O[C@@H]3O[C@H](CO)[C@@H](O)[C@H](O)[C@H]3O)cc(O)c21`, the outcome was Active.

With `COc1ccc(CC2COc3c(C)c(O)c(C)c(O)c3C2=O)cc1O` (racemic), the result was Active.

Regarding `COc1ccc(C[C@@H]2COc3c(C)c(O)c(C)c(O)c3C2=O)cc1`, the result was Active.

For the compound `COc1ccc([C@@H]2CC(=O)c3c(O)cc(O[C@@H]4O[C@H](CO[C@@H]5O[C@@H](C)[C@H](O)[C@@H](O)[C@H]5O)[C@@H](O)[C@H](O)[C@H]4O)cc3O2)cc1O`, the result was Active.

For the compound `COc1c(O[C@@H]2O[C@H](CO)[C@@H](O)[C@H](O)[C@H]2O)cc2occ(-c3ccc(O)cc3)c(=O)c2c1O`, the result was Active.

On to `Cc1c(O)c(C)c2c(c1O)C(=O)/C(=C/c1ccc(O)cc1)CO2`, for which the result was Active.

For the origin of these results see ChEMBL document CHEMBL1157064, “Homoisoflavonoids from the fibrous roots of Polygonatum odoratum with glucose uptake-stimulatory activity in 3T3-L1 adipocytes” (J Nat Prod, 2010).
